Experiments:
[1] = molecular target: T1, Catalytic 19 kDa domain of Oplophorus luciferase (Oplophorus gracilirostris, UniProt Q9GV45); test: Substrate specificity of various luciferases: catalytic 19 kDa domain of Oplophorus luciferase; assay type: biochemical, Oplophorus grachlorostris; settings: for Maximum Luminescence Intensity (Imax, %) / Relative Amount of Integrated Luminescence Intensity (1 min, %): relative to coelenterazine = 100
T1 construct: The catalytic 19 kDa domain of Oplophorus luciferase was produced by the method described in; made in house
Experimental: (§1) The preparation of various luciferases and the determination of their luminescence activities were carried out in accordance with the methods as previously reported. The catalytic 19 kDa domain of Oplophorus luciferase was produced by the method described in Inouye S. & Sasaki S. (2007) Protein Express. Purif. 56, 261-268, Gaussia luciferase by the method described in Inouye S & Sahara Y. (2008) Biochem. Biophys. Res. Commun. 368, 600-605, Renilla luciferase and Renilla luciferase 547 by the method described in Inouye S. et al. (2013) Protein Express. Purif. 88, 150-156, and aequorin by the method described in Inouye S et al. (2010) Anal. Biochem. 407, 247-252, respectively, and used.

[2] = molecular target: T2, Renilla luciferase (Renilla reniformis, UniProt P27652); test: Substrate specificity of various luciferases: Renilla luciferase; assay type: biochemical; settings: relative to coelenterazine = 100
T2 construct: made in house
T2 sequence (P27652 1-311): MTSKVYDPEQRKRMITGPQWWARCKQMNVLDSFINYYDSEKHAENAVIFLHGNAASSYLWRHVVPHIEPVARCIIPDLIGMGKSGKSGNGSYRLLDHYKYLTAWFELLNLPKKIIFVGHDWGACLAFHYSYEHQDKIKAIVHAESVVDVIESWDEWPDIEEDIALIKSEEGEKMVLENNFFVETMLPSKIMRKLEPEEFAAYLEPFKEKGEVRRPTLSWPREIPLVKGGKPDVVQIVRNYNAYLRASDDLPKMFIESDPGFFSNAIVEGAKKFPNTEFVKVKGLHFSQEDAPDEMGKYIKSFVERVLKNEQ
Experimental: as §1

[3] = molecular target: T3, nanoKAZ (mutated catalytic 19 kDa domain of Oplophorus luciferase) (Oplophorus gracilirostris, UniProt Q9GV45, A31E/A60N/A81I/F95D/I117V/K70R/L54V/L99Q/M102K/N193R/P142E/Q151K/Q38R/Q45L/V71I/Y165I); test: Luminescence activity of secreted codon-optimized nanoKAZ domain protein with coelenterazine analogs as substrates; assay type: biochemical; settings: for Relative maximum luminescence intensity (Imax) / Relative amount of integrated luminescence intensity (1 min.): relative to coelenterazine = 1.0; for Relative maximum luminescence intensity (Imax): 1 μg substrate, 50 mM Tris-HCl (pH 7.6)-10 mM EDTA, 60 seconds; for Relative amount of integrated luminescence intensity (1 min.): integrated for 60 seconds; for Luminescence pattern (decay): FIG. 3, recombinant nanoKAZ
T3 construct: secretory signal peptide of Gaussia luciferase (GLsp) (N, cleaved yes); made in house; host or cells: CHO-K1 transiently transfected with pcDNA3-GLsp-nanoKAZ; unpurified culture medium used as the enzyme solution
Experimental: The Chinese hamster ovary-derived cell line CHO-K1 was cultured in Ham's F-12 medium (manufactured by Wako Pure Chemical Industries, Ltd.) containing 10% (v/v) calf fetal serum (manufactured by Biowest Inc.), and cultured in DMEM (manufactured by Wako Pure Chemical Industries, Ltd.) containing 10% (v/v) calf fetal serum (manufactured by Biowest Inc.). The respective cells were seeded in a 6-well culture plate (n=2) with 1×10^5 cells/well/2 mL medium, and cultured in an incubator at 37° C. in 5% CO2, respectively. After 24 hours, the purified pcDNA3-GLsp-nanoKAZ plasmid was transfected into CHO-K1 cells using a FuGene HD Transfection Kit (manufactured by Promega Corp.), which was used in the subsequent experiment. Specifically, 1 μg of the pcDNA3-GLsp-nanoKAZ expression vector and 3 μL of FuGene HD were added to 100 μL of medium, which was allowed to stand at room temperature for 15 minutes. Then 100 μL of the DNA-FuGene complex solution was added to the cells in the 6 wells. After incubation for 48 hours, the culture medium was recovered and used as the secreted nanoKAZ enzyme solution for assay.
The enzyme solution, 5 μL, for assay obtained in EXAMPLE 4 (2) was added to 100 pt of 50 mM Tris-HCl (pH 7.6)-10 mM EDTA (Wako Pure Chemical Industries) containing 1 μg each of various coelenterazine analogs to initiate the luminescence reaction. The luminescence activity was determined by a luminometer (AB2200, manufactured by Atto Company) for 60 seconds and expressed by the maximum luminescence intensity (Imax) and the relative light units (du) of the lumimescence intensity integrated for 60 seconds.
The coelenterazine analogs used for substrate specificity analysis except for the analog described in EXAMPLE 1 were synthesized by the methods as described in the journals below, respectively. Specifically, bis-coelenterazine was synthesized by the method described in Nakamura et al. (1997) Tetrahedron Lett. 38: 6405-6406; Furimazine (Compound No. 3939 referred to in the journal) and C6d-coelenterazine (Compound No. 3840 referred to in the journal) by the method described in Hall et al. (2012) ACS Chem. Biol. […]; and the C2-coelenterazine analogs by the method described in Inouye et al (2010) Anal. Biochem. 407: 247-252. The enzyme solution of the culture medium in which nanoKAZ was secreted by the method as described in EXAMPLE 4 (2) was used for determining the luminescence activity with coelenterazine or its analogs. […] As a result, the luminescence substrates which can markedly improve the luminescence intensity and the amount of the integrated luminescence intensity to compare with furimazine are bis-coelenterazine and C6d-f-coelenterazine, showing a continuous luminescence without a decay of the luminescence intensity.

[4] = molecular target: T4, Aequorin (Aequorea victoria, UniProt P07164); assay type: biochemical, jellyfish; settings: relative to coelenterazine = 100
T4 construct: made in house
Experimental: as §1

[5] = tested on: Renilla luciferase 547; test: Substrate specificity of various luciferases: Renilla luciferase 547; assay type: biochemical; settings: relative to coelenterazine = 100
Experimental: as §1

[6] = tested on: Gaussia luciferase; test: Substrate specificity of various luciferases: Gaussia luciferase; assay type: biochemical; settings: relative to coelenterazine = 100
Experimental: as §1

[7] = Stability of coelenterazine analogs in aqueous solution (HPLC); assay type: physicochemical; settings: 30 mM Tris-HCl (pH 7.6)
Experimental: The stability of coelenterazine analogs in an aqueous solution was examined by dissolving 10 μg of coelenterazine analogs in 0.5 mL of 30 mM Tris-HCl (pH 7.6), allowing the solution to stand at 37° C. for 22 hours, and then the degradation of coelenterazine analogs was determined by HPLC analysis. The HPLC analysis was performed by the modified method as described in Inouye S. et al. (2013) Protein Express. Purif. 88, 150-156.

[8] = incubation time at 37° C. 0 hour
[9] = incubation time at 37° C. 22 hours

T4 sequence (P07164 8-196): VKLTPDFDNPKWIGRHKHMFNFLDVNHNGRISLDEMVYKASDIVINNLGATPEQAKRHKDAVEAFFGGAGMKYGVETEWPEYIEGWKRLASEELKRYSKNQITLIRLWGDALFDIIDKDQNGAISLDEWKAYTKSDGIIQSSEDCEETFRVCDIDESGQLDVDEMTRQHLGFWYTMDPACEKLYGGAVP
T1 sequence (Q9GV45 28-196): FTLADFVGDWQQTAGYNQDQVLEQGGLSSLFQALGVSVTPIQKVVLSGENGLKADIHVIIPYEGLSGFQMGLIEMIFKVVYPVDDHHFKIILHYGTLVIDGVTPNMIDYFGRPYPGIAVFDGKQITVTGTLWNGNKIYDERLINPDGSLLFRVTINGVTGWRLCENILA
T3 sequence (Q9GV45 other isoform, or with tags, fused parts or gaps with the stated changes): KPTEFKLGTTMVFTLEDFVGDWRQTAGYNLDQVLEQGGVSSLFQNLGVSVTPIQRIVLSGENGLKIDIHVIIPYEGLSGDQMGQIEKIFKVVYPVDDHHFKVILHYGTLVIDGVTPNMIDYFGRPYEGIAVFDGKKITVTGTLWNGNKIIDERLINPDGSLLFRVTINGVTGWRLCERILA

Molecule	Maximum Luminescence Intensity (Imax, %) [1] [%]	Relative Amount of Integrated Luminescence Intensity (1 min, %) [1]	Maximum Luminescence Intensity (Imax, %) [2] [%]	Relative Amount of Integrated Luminescence Intensity (1 min, %) [2]	Relative maximum luminescence intensity (Imax) [3]	Relative amount of integrated luminescence intensity (1 min.) [3]	Maximum Luminescence Intensity (Imax, %) [4] [%]	Relative Amount of Integrated Luminescence Intensity (1 min, %) [4]	Maximum Luminescence Intensity (Imax, %) [5] [%]	Relative Amount of Integrated Luminescence Intensity (1 min, %) [5]	Maximum Luminescence Intensity (Imax, %) [6] [%]	Relative Amount of Integrated Luminescence Intensity (1 min, %) [6]	Suitability as substrate ([1]; in words, from TABLE 2)	Residual Ratio of Coelenterazine Analog (%) [7, 8] [%]	Residual Ratio of Coelenterazine Analog (%) [7, 9] [%]	Luminescence pattern (decay) [3]
Oc1ccc(-c2cn3c(O)c(Cc4ccccc4)nc3c(Cc3ccccc3)n2)cc1 [h-Coelenterazine]	92.6	(101) %	68.5	(73.5) %	17.0	10.1	84.0	(68.0) %	24.5	(16.4) %	8.2	(12.1) %	–	–	–	–
C6d-coelenterazine	9.0	(7.7) %	0.02	(0.02) %	0.8	0.7	0.03	(0.03) %	0.12	(0.12) %	0.8	(0.8) %	–	–	–	–
O=c1c(Cc2ccc(F)cc2)nc2c(Cc3ccccc3)[nH]c(-c3ccccc3)cn1-2 [C6d-f-Coelenterazine, C6d-f-coelenterazine]	100	(105) %	0.07	(0.01) %	10.1	10.1	0.12	(0.19) %	0.17	(0.13) %	0	(0) %	good substrate	100	49	did not exhibit a rapid decay
bis-coelenterazine	108	(102) %	0.04	(0.03) %	10.3	9.7	0.01	(0.01) %	0.07	(0.08) %	0	(0) %	–	100	38	did not exhibit a rapid decay
O=c1c(Cc2ccc(F)cc2)nc2c(Cc3ccccc3)[nH]c(-c3ccc(O)cc3)cn1-2 [f-Coelenterazine]	78.6	(85.7) %	65.3	(71.4) %	19.5	11.1	42.3	(59.0) %	78.0	(68.1) %	5.0	(10) %	–	–	–	–
coelenterazine [Coelenterazine (CTZ)]	100	(100) %	100	(100) %	1.0	1.0	100	(100) %	100	(100) %	100	(100) %	–	100	2	–

From patent US9567623B2, “Coelenterazine analogs” (JNC CORPORATION, priority 2013, dated 2017)
